The nature of this data set: Human HepG2 cell viability assay in 384 well format. Particulars: HepG2 cells, read-out: Inhibition. The data set is classed as toxicity, cell-based. Set-up: dose 125 nL, time 70.5 hour; concentration not given beside the values.
Regarding `O=C1COc2cc(C(=O)NS(=O)(=O)c3cc(Cl)ccc3Cl)ccc2N1`, the cytotoxicity at 70.5 h is -8.05%.

In the case of `CC1c2ncc(Cn3cccn3)n2CCN1Cc1ccc(F)cc1` (centres undefined), the cytotoxicity at 70.5 h was -2.85%.

`COc1cc(F)cc(NC(=O)NCc2cccc(N(C)C)n2)c1`: the cytotoxicity at 70.5 h turned out to be 16.5%.

For the compound `COc1ccccc1C(=O)N1CCCC1c1nncn1CC(C)C` (centres undefined), the cytotoxicity at 70.5 h is -0.719%.

As to `CN(CCc1ccccc1)Cc1cc(C(=O)N2CCSCC2)no1`, the cytotoxicity at 70.5 h was -3.85%.

With `Cc1nn(C)c(Oc2ccccc2)c1CNC1CCOc2ccccc21` (centres undefined), the cytotoxicity at 70.5 h was -1.6%.

For `CS(=O)(=O)c1ccc(-c2cc(O)cc(CCC3CCCCN3)c2)cc1` (centres undefined), the cytotoxicity at 70.5 h is -7.28%.

Regarding `CCCn1cc(NC(=O)c2ccc(S(C)(=O)=O)cc2)ccc1=O`, the cytotoxicity at 70.5 h was -1.34%.

On to `O=C1CC(c2cccnc2)C2(CCN(S(=O)(=O)C3CC3)CC2)N1` (centres undefined), for which the cytotoxicity at 70.5 h is -3.38%.

`CCOCC(=O)N1CCOCC2(CCN(c3ncccn3)C2)C1` (centres undefined): the cytotoxicity at 70.5 h turned out to be 2.44%.

As for `CN(Cc1ccccc1)CC(O)Cn1cnc2ccc(Br)cc2c1=O` (centres undefined), the cytotoxicity at 70.5 h was -5.18%.

Regarding `C=Cc1ccc(C(=O)N2CCCC(Nc3ccccc3)C2)cc1` (centres undefined), the cytotoxicity at 70.5 h was 26.6%.

Consider `COc1cc2nc(C)sc2cc1NC(=O)C(C)NC(N)=O` (centres undefined), for which the cytotoxicity at 70.5 h is 1.54%.

For `Cc1n[nH]c(C2CN(CCc3cccs3)CCO2)n1` (centres undefined), the cytotoxicity at 70.5 h turned out to be 14.5%.

`COC(=O)c1ccc(NC(=O)CCc2ccco2)cc1`: the cytotoxicity at 70.5 h is -8.07%.

Take `CC(C)(C)c1ccn(C2(C(=O)O)CCN(c3nccc(N)n3)CC2)n1`: the cytotoxicity at 70.5 h is -3.64%.

For `Cc1noc(C)c1C(=O)NCCN1CCN(c2ccccc2)CC1`, the cytotoxicity at 70.5 h was 1.76%.

As to `COc1ccc(CCNC(=O)N2CCN(C)[C@@H]3CS(=O)(=O)C[C@@H]32)cc1`, the cytotoxicity at 70.5 h was -3.24%.

Regarding `O=C(Cn1cc(I)cn1)N1CCc2ccccc2C1`, the cytotoxicity at 70.5 h is -3.15%.

Take `CN(C)Cc1cc(-c2nccn2CCn2cccn2)ccc1O`: the cytotoxicity at 70.5 h is -11.1%.

For the compound `Cc1nc(CC(=O)N(CCN2CCOCC2)Cc2ccco2)c(C)s1`, the cytotoxicity at 70.5 h was -4.1%.

As for `COC(=O)N1CCC2(CC1)CC(c1ccccc1)CN(C)C2` (centres undefined), the cytotoxicity at 70.5 h is -0.459%.

In the case of `COc1ccccc1OCCNc1snc(Cl)c1C#N`, the cytotoxicity at 70.5 h is -15.5%.

As to `Cc1ccc(C#N)c(N2CCC(c3nccn3CCN(C)C)CC2)n1`, the cytotoxicity at 70.5 h is -7.04%.

Take `CCc1nc(CN2CCCN(C(=O)c3ccnc(C)n3)CC2)cs1`: the cytotoxicity at 70.5 h was determined as 3.9%.

As for `CC(=O)N1CCC2(CC1)CN(C(=O)c1cccnc1)c1ccc(F)cc12`, the cytotoxicity at 70.5 h is -3.83%.

As to `CCCN(C(=O)COC)c1nc2c(s1)CCc1c-2cnn1C`, the cytotoxicity at 70.5 h was determined as 3.43%.

Take `CC(CCc1ccccc1F)C(=O)NS(C)(=O)=O` (centres undefined): the cytotoxicity at 70.5 h is -8.18%.

As to `Cc1cc(C)n(C2CCCN(C(=O)Cc3cccs3)C2)n1` (centres undefined), the cytotoxicity at 70.5 h was 11%.

Take `CCCn1ncc(-c2nc3c(cnn3CC)[nH]2)c1C`: the cytotoxicity at 70.5 h was -7.07%.

As for `O=C(O)c1csc(NCCc2ccccc2)n1`, the cytotoxicity at 70.5 h was -1.2%.

For the compound `NC(=O)C1CCN(C(=O)c2cc(S(=O)(=O)N3CCCCC3)cs2)CC1`, the cytotoxicity at 70.5 h is 14.2%.

Consider `COc1ccc(F)cc1C(C(=O)O)N1CCSCC1` (centres undefined), for which the cytotoxicity at 70.5 h was -7.69%.

For `c1cnn(CC2CN(Cc3csc(-c4ccsc4)n3)CCO2)c1` (centres undefined), the cytotoxicity at 70.5 h is -6.82%.

As for `CCn1ccnc1S(=O)(=O)Cc1c(C)cc(C)c(C(C)=O)c1C`, the cytotoxicity at 70.5 h is -6.82%.

For `Cc1nn(C)c2nc(NCCN3CCCC(C(N)=O)C3)sc12` (centres undefined), the cytotoxicity at 70.5 h is -13.4%.

Regarding `CCN(CC)C(=O)[C@@H]1C[C@H](N)CN1c1nnc(-c2ccccc2)s1`, the cytotoxicity at 70.5 h was 18.2%.

`Cc1ccc(C(NC(=O)[C@H]2CC[C@@H](O)CC2)c2cccnc2)cc1C` (some centres undefined): the cytotoxicity at 70.5 h is -6.91%.

For `Cc1nn(C)c(C)c1C(C)NC(=O)c1cc(CN2CCC(O)CC2)on1` (centres undefined), the cytotoxicity at 70.5 h is -5.78%.

Turning to `COCc1cccc(NC(C(N)=O)c2ccc(Br)cc2)c1` (centres undefined), the cytotoxicity at 70.5 h is -9.42%.

With `Cc1ccc2cccc(C(=O)N3CCN(c4cccnn4)CC3)c2n1`, the cytotoxicity at 70.5 h is -9.4%.

For the compound `Cn1cc(CN2C[C@@H]3COC[C@]3(COc3ccc(C#N)cn3)C2)cn1`, the cytotoxicity at 70.5 h was -10.6%.

On to `O=C([C@H]1C[C@H]2OCC[C@H]2N(Cc2ccoc2)C1)N1CCCO1`, for which the cytotoxicity at 70.5 h is -5.69%.

With `CCc1nn(C)c(Cl)c1CN1CCC(c2cc(O)nc(C)n2)CC1`, the cytotoxicity at 70.5 h was -10.5%.

For the compound `CNC(=O)C1CN(C(=O)COc2ccccc2)Cc2cn(C)nc21` (centres undefined), the cytotoxicity at 70.5 h is -3.29%.

With `CS(=O)(=O)NC1CCN(Cc2coc(-c3ccccc3)n2)CC1`, the cytotoxicity at 70.5 h was -9.14%.

As to `CN(C)C(C(=O)N1CCN(CCn2cccc2)CC1)c1cccc(F)c1` (centres undefined), the cytotoxicity at 70.5 h stood at 2.13%.

Turning to `CCC1CN(Cc2ccccc2)CCN1Cc1nnc(C2CCC2)o1` (centres undefined), the cytotoxicity at 70.5 h is -0.161%.

On to `CC(C)c1ncc(CN2CCC(CO)C2)cn1` (centres undefined), for which the cytotoxicity at 70.5 h is -4.22%.

On to `Cc1csc(C2CCCCN2C(=O)c2cc(Cl)c[nH]2)n1` (centres undefined), for which the cytotoxicity at 70.5 h is -0.326%.

As to `COc1ccc(-c2nc(CN3CCc4cnc(C)nc4C3)no2)cc1`, the cytotoxicity at 70.5 h was -6.23%.

For the compound `CCCOc1ccc(Cl)cc1C(=O)N1CCC(n2cncn2)CC1`, the cytotoxicity at 70.5 h is 17.2%.

As to `O=C(Cc1ccccc1)NC[C@H]1Cn2ccnc2CO1`, the cytotoxicity at 70.5 h amounted to 5.13%.

With `CC(CNC(=O)CCc1ccco1)N1CCc2sccc2C1` (centres undefined), the cytotoxicity at 70.5 h stood at 3.4%.

On to `Cc1nn(C)c(Cl)c1C1CCCN1Cc1nnc(C2CC2)o1` (centres undefined), for which the cytotoxicity at 70.5 h is -5.62%.

Regarding `COc1ccc(CN2CCOCC3(CCN(C4CCOCC4)C3)C2)cc1` (centres undefined), the cytotoxicity at 70.5 h is -5.87%.

`O=C(CCN1C(=O)CCC1=O)Nc1ccc(Cl)cc1`: the cytotoxicity at 70.5 h was -1.6%.

Turning to `COc1ccc(-c2nc(CCNC(=O)NCC3CCOC3)co2)cc1` (centres undefined), the cytotoxicity at 70.5 h was -11.8%.

Take `Cc1ccc(-c2cc(C(F)(F)F)nc(N3CCOCC3)n2)s1`: the cytotoxicity at 70.5 h is -11.3%.

With `O=C(NCCNS(=O)(=O)c1ccc2c(c1)CCCC2)c1ccoc1`, the cytotoxicity at 70.5 h is -8.42%.

Take `CCOc1cccc(NC(=O)c2cc(C)on2)n1`: the cytotoxicity at 70.5 h is -5.47%.

Regarding `Cn1c(N)nnc1SCC1OCCc2ccccc21` (centres undefined), the cytotoxicity at 70.5 h was found to be 6.39%.

Take `Cc1ncnc2c1CCN(C(=O)c1cnccn1)CC2`: the cytotoxicity at 70.5 h was -0.588%.

Consider `CN1CCOC(CNCc2c(Cl)nc3ccccn23)C1` (centres undefined), for which the cytotoxicity at 70.5 h was -19.2%.

For `Cn1cc(CN2C[C@H]3CCN(C(=O)c4cscn4)C[C@H]3C2)cn1`, the cytotoxicity at 70.5 h amounted to 27.4%.

Regarding `O=C(c1nc(=O)[nH][nH]1)N1CCC2(CCCCC2)C1`, the cytotoxicity at 70.5 h turned out to be 20.2%.

In the case of `O=C(NCCc1cccs1)[C@]12COC[C@H]1CN(c1ncccn1)C2`, the cytotoxicity at 70.5 h is -13.7%.

For the compound `O=C(C1CCC1)N1CC[C@H](O)[C@@H]1Cc1cccnc1`, the cytotoxicity at 70.5 h worked out at 1.53%.

In the case of `COc1ccccc1OC1CCN(c2ccncc2)CC1`, the cytotoxicity at 70.5 h came to 12.9%.

Regarding `CC(C)(C)OC(=O)Cn1cccc(S(=O)(=O)N2CCCC2)c1=O`, the cytotoxicity at 70.5 h is -12.8%.

Take `CSc1nc(C2CC2)nc(C)c1C(=O)NCc1ccco1`: the cytotoxicity at 70.5 h came to 16.1%.

Regarding `Cc1ccc(C2(CN(C)Cc3snnc3C)CCNCC2)nc1`, the cytotoxicity at 70.5 h is -1.57%.

Turning to `O=C(c1coc(-c2ccccc2)n1)N1CCCCC1`, the cytotoxicity at 70.5 h is -10.3%.

For `CC(C)(C)CC(NC(=O)N1CCC(C(N)=O)CC1)C(F)(F)F` (centres undefined), the cytotoxicity at 70.5 h turned out to be 5.66%.

For the compound `CN(C)S(=O)(=O)N1CCC2(COCc3cnc(-c4ccccc4)nc32)C1` (centres undefined), the cytotoxicity at 70.5 h is -23.1%.

On to `CC(=O)N1Cc2nc(C(=O)NCCc3cccnc3)oc2C1`, for which the cytotoxicity at 70.5 h is -6.92%.

Take `O=C1C(Sc2nnnn2C2CC2)CCN1c1ccccc1Cl` (centres undefined): the cytotoxicity at 70.5 h was -6.47%.

As for `CC(=O)N1CCN(Cc2nccs2)CC2(CC(=O)N(C)C2)C1` (centres undefined), the cytotoxicity at 70.5 h is -11.2%.

`NC(=O)CSc1nccc(-c2ccc3c(c2)OCO3)n1`: the cytotoxicity at 70.5 h was -2.27%.

As to `Cc1nn(C)c2nc(NCCCN3CCCC(CO)C3)sc12` (centres undefined), the cytotoxicity at 70.5 h is -9.15%.

`Cc1cnn(CC2CCCN2c2ncnc3sccc23)c1` (centres undefined): the cytotoxicity at 70.5 h was 1.15%.

Regarding `COCC(=O)N1CCc2nc(C)nc(NC(C)C)c2CC1`, the cytotoxicity at 70.5 h was -6.06%.

Turning to `CCN1C(=O)[C@H]2CN(CC(C)C)C[C@H]2C12CCN(C(=O)NC(C)C)CC2`, the cytotoxicity at 70.5 h is -1.18%.

Consider `O=C(CCCn1cncn1)N1CCC2(CC1)[C@H](O)C[C@@H]2OCCO`, for which the cytotoxicity at 70.5 h is -6.43%.

On to `CCOCC(=O)N1CC[C@@H]2O[C@@H](C)C[C@H]2C1`, for which the cytotoxicity at 70.5 h is -11.3%.

Regarding `CN1CCN([C@@H]2CN(C(=O)c3cc4ccc(F)cc4[nH]3)C[C@H]2O)CC1`, the cytotoxicity at 70.5 h was -3.6%.

As for `CC(C)(C(=O)NCC1CCN(Cc2ncc[nH]2)C1)c1ccccc1` (centres undefined), the cytotoxicity at 70.5 h was -5.7%.

Turning to `Cc1ccc(S(=O)(=O)Nc2c(C)nn(C)c2C)cc1C`, the cytotoxicity at 70.5 h is -5.46%.

Take `COC1COC2(CCN(c3ccc(C#N)cc3)CC2)C1` (centres undefined): the cytotoxicity at 70.5 h is -5.93%.

With `O=C(Nc1cccc(-c2cscn2)c1)N1CCC2(CC1)CC(O)CO2` (centres undefined), the cytotoxicity at 70.5 h is -11.6%.

`CCn1nnc(NCc2cc(Br)cc(Br)c2OC)n1`: the cytotoxicity at 70.5 h is -18.9%.

On to `CCN1CC(C(=O)NCCc2csc(-c3ccncc3)n2)CCC1=O` (centres undefined), for which the cytotoxicity at 70.5 h is -5.21%.

For the compound `Cc1noc(C)c1CN1CCOC2(CCCN(c3nccs3)C2)C1` (centres undefined), the cytotoxicity at 70.5 h amounted to 29.8%.

In the case of `CCn1cnnc1C1CCN(C(=O)c2ccc3ccccc3n2)CC1`, the cytotoxicity at 70.5 h is -3.84%.

As for `N#Cc1ccccc1CN1CCC(c2nccn2CC2CCC2)CC1`, the cytotoxicity at 70.5 h is -1.95%.

In the case of `CCc1cn[nH]c1C1CCCN(C(=O)c2cc(C#N)c(=O)[nH]c2C)C1` (centres undefined), the cytotoxicity at 70.5 h was -22.8%.

For `COC[C@@H]1CCC[C@]12CN(S(=O)(=O)c1cn(C)cn1)CCO2`, the cytotoxicity at 70.5 h is -6.65%.

In the case of `CCC(=O)NCc1cc(Br)c(OC)c(OC)c1`, the cytotoxicity at 70.5 h is -0.621%.

Take `CN(Cc1ccco1)[C@@H]1CN(C(=O)c2ccnnc2)C[C@@H]2CCCO[C@@H]21`: the cytotoxicity at 70.5 h is -7.61%.

Values taken from ChEMBL document CHEMBL3507680, “University of Dundee, Gates Library screen for HepG2 cell viability”.
